The values below are quoted from earlier work in paper PMC7465391, “1,4-Disubstituted 1,2,3-Triazoles as Amide Bond Surrogates for the Stabilisation of Linear Peptides with Biological Activity” (Molecules, 2020).

Where two headings read alike, the source gives them in different places.

One data set has as its target cathepsin L. From the text:
(§1) Table 7 Sequences of CatS1–2 and CatK1–2 and their reported biological properties. | column: Ki for CatL, pH 5.5 [nM] ^b || The Lalmanach group explored the stabilisation of peptidic inhibitors for cathepsin K and S [99]. These two proteins are cysteine proteases normally present in lysosomes and share a high homology. When found in the extracellular matrix, these enzymes are often overexpressed and dysregulated, making them innovative targets for new therapies for a range of medical conditions. Cathepsin K is considered as a target involved in osteoporosis whereas cathepsin S has been identified to play a role in autoimmune diseases and neuropathic pain [100, 101]. One strategy to identify inhibitors for prot ... || Another set of investigated peptidomimetics was based on a bradykinin-derived substrate, previously reported to be degraded by cathepsin K [103].

In the next data set the target is cathepsin K.
Excerpt: as §1, with “CatK,” for “CatL,”

On to “Ac-Gly-Arg-Trp-His-Pro-Met-GlyΨ[Tz]Ala-Pro-Trp-Glu-D-Ala-D-Arg-NH2 [CatS1]”, for which the Ki (usually a dissociation constant, usually derived from enzyme kinetics or from competition with a known ligand) on cathepsin L (reversible inhibition, read-out: Ki cathepsin L) was 30 µM; at cathepsin K (pH 5.5, 37 °C, substrate Z-Phe-Arg-AMC, mean ± SEM of three experiments, read-out: Ki for CatK, pH 5.5) it was 10 µM.
Regarding “Abz-Arg-Pro-Pro-GlyΨ[Tz]Phe-Ser-Pro-Phe-Arg-Tyr(3-NO2)-NH2 [CatK1, triazolo-peptidomimetic of a bradykinin-derived cathepsin K substrate]”, the Ki on cathepsin L (pH 5.5, 37 °C, substrate Z-Phe-Arg-AMC, mean ± SEM of three experiments, read-out: Ki for CatL, pH 5.5) was 22 µM; on cathepsin K (reversible inhibition, read-out: Ki cathepsin K), 0.8 µM.
